Source: patent publication US20190209539A1, “THIOHYDANTOIN ANDROGEN RECEPTOR ANTAGONISTS FOR THE TREATMENT OF CANCER” (Janssen Pharmaceutica NV, priority 2016, published 2019)
Numbering of substitutions follows the chain as printed.

Legend:
[1] = target: T1, F876L mutant Androgen Receptor (AR-F876L) (Homo sapiens, UniProt P10275, F877L); test: LNCaP-AR-F876L AG: ARE luciferase reporter assay, agonist mode; format: cell-based; conditions: maximum % stimulation (agonist response), % of 1 μM R-1881 max
T1 construct: expressed in transfected cells; host or cells: LNCaP F876L cells with ARE firefly luciferase lentiviral construct
T1 sequence (P10275 1-920 F877L): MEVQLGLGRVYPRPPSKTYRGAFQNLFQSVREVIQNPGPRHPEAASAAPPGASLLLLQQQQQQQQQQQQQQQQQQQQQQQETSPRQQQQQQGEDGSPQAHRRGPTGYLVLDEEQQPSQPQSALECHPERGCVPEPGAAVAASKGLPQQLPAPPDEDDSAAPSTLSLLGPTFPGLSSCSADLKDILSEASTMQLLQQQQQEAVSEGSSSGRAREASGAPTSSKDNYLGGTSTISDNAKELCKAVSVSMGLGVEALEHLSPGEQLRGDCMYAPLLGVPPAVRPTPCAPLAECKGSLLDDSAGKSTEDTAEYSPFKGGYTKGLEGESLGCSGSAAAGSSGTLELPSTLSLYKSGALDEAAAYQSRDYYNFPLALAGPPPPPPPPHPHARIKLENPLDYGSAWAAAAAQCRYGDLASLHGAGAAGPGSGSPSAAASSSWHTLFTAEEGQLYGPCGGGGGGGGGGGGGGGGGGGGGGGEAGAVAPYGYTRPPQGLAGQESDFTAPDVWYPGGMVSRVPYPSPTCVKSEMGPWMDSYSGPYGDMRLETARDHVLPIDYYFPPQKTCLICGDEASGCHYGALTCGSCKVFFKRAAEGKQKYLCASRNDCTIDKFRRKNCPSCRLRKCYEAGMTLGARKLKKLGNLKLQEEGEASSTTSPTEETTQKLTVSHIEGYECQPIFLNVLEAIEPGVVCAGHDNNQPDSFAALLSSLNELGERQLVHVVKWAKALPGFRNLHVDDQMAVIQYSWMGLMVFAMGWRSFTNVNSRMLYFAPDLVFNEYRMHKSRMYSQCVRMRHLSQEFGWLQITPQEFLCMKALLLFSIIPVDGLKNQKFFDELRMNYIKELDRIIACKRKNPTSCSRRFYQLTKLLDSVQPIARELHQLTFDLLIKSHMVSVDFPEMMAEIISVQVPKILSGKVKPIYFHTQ
Procedure: (§1) A stable pooled-population cell line was generated using puromycin (Life Technologies) selection at 1:10,000 v/v. The protocol below was used for both cell lines and for testing of the compounds of Formula (I) of the present invention.
(§2) LNCaP cells were grown to about 80% confluence, media removed and cells rinsed in Hank's balanced salt solution prior to separation from the plate with 0.05% Trypsin EDTA. Cells were lifted and trypsin negated in complete CSS (charcoal stripped serum) culture media. […] Agonist challenge was at 400 pM for WT assay and 600 pM for F876L assay. Plates containing cells and compounds herein were incubated for a further 20-24 hours at 37° C., 5% CO2 before addition of 40 μL/well of Steady-Glo Luciferase Assay System Reagent (Promega# E2520). After 1 h, plates were read for luminescence on a BMG Pherastar.
(§3) EC/IC50 calculations were achieved utilizing calculated RLU data and data fitting macros. Data were fit using least-squares methods to the following formula: […]
(§4) As used herein: pIC50 is defined as—Log10(IC50 expressed in [Molar]). pEC50 is defined as—Log10(EC50 expressed in [Molar]). […] LNCaP-AR-wt ANT refers to the reporter assay using LNCaP cells stably transfected with the Androgen Response Element Firefly Luciferase lentiviral construct and wild-type Androgen Receptor (AR-wt) in Antagonist mode. LNCaP-AR-wt AG refers to the reporter assay using LNCaP cells stably transfected with the Androgen Response Element Firefly Luciferase lentiviral construct and wild-type Androgen Receptor (AR-wt) in Agonist mode. LNCaP-AR-F876L ANT refers to the reporter assay using LNCaP cells stably transfected with the Androgen Response Element Firefly Luciferase lentiviral construct and F876L mutant Androgen Receptor (AR-F876L) in Antagonist mode. LNCaP-AR-F876L AG refers to the reporter assay using LNCaP cells stably transfected with the Androgen Response Element Firefly Luciferase lentiviral construct and F876L mutant Androgen Receptor (AR-F876L) in Agonist mode.

[2] = target: T2, wild-type Androgen Receptor (AR-wt) (Homo sapiens, UniProt P10275); test: LNCaP-AR-wt AG: ARE luciferase reporter assay, agonist mode; format: cell-based; conditions: maximum % stimulation (agonist response), % of 1 μM R-1881 max
T2 construct: expressed in transfected cells; host or cells: LNCaP AR (cs) cells with ARE firefly luciferase lentiviral construct
T2 sequence (P10275 1-920): T1 sequence (P10275 1-920 F877L) with L877F
Procedure: as §1, §2, §3, §4

| Compound | LNCaP-AR-F876L AG MAX % Stim [1] | LNCaP-AR-wt AG MAX % Stim [2] |
| --- | --- | --- |
| Cc1cc(N2C(=O)C3(CCC3)N(c3ccc(C(=O)NC4CCOCC4)c(F)c3)C2=S)cnc1C#N [Cpd 2, 4-[6-(6-cyano-5-methyl-3-pyridyl)-5-oxo-7-thioxo-6,8-diazaspiro[3.4]octan-8-yl]-2-fluoro-N-tetrahydropyran-4-yl-benzamide] | −0.4% | 0.8% |
| N#Cc1ncc(N2C(=O)C3(CCC3)N(c3ccc4ccncc4c3)C2=S)cc1C(F)(F)F [Cpd 7, 5-[8-(7-isoquinolyl)-5-oxo-7-thioxo-6,8-diazaspiro[3.4]octan-6-yl]-3-(trifluoromethyl)pyridine-2-carbonitrile] | 0.0% | −0.2% |
| N#Cc1ncc(N2C(=O)C3(CCC3)N(c3cccnc3)C2=S)cc1C(F)(F)F [Cpd 9, 5-[5-oxo-8-(3-pyridyl)-7-thioxo-6,8-diazaspiro[3.4]octan-6-yl]-3-(trifluoromethyl)pyridine-2-carbonitrile] | 0.0% | −0.2% |
| CNC(=O)c1ccc(N2C(=S)N(c3cnc(C#N)c(C)c3)C(=O)C2(C)C)cc1F [Cpd 12, 4-[3-(6-cyano-5-methyl-3-pyridyl)-5,5-dimethyl-4-oxo-2-thioxo-imidazolidin-1-yl]-2-fluoro-N-methyl-benzamide] | −0.3% | 0.9% |
| CC(C)(O)CNC(=O)c1ccc(N2C(=S)N(c3cnc(C#N)c(C(F)(F)F)c3)C(=O)C23CCC3)cc1F [Cpd 17, 4-[6-[6-cyano-5-(trifluoromethyl)-3-pyridyl]-5-oxo-7-thioxo-6,8-diazaspiro[3.4]octan-8-yl]-2-fluoro-N-(2-hydroxy-2-methyl-propyl)benzamide] | 0.1% | −0.1% |
| N#Cc1ncc(N2C(=O)C3(CCC3)N(c3ccc4ccccc4c3)C2=S)cc1C(F)(F)F [Cpd 18, 5-[8-(2-naphthyl)-5-oxo-7-thioxo-6,8-diazaspiro[3.4]octan-6-yl]-3-(trifluoromethyl)pyridine-2-carbonitrile] | 0.0% | −0.2% |
| CC(C)CCNC(=O)c1ccc(N2C(=S)N(c3cnc(C#N)c(C(F)(F)F)c3)C(=O)C23CCC3)cc1F [Cpd 27, 4-[6-[6-cyano-5-(trifluoromethyl)-3-pyridyl]-5-oxo-7-thioxo-6,8-diazaspiro[3.4]octan-8-yl]-2-fluoro-N-isopentyl-benzamide] | 0.2% | 0.4% |
| CN1CCC(Oc2ccc(N3C(=S)N(c4cnc(C#N)c(C(F)(F)F)c4)C(=O)C34CCC4)cc2F)CC1 [Cpd 28, 5-[8-[3-fluoro-4-[(1-methyl-4-piperidyl)oxy]phenyl]-5-oxo-7-thioxo-6,8-diazaspiro[3.4]octan-6-yl]-3-(trifluoromethyl)pyridine-2-carbonitrile] | 0.0% | −0.1% |
| N#Cc1ncc(N2C(=O)C3(CCC3)N(c3ccc(C(=O)NCc4ccccc4Cl)c(F)c3)C2=S)cc1C(F)(F)F [Cpd 31, N-[(2-chlorophenyl)methyl]-4-[6-[6-cyano-5-(trifluoromethyl)-3-pyridyl]-5-oxo-7-thioxo-6,8-diazaspiro[3.4]octan-8-yl]-2-fluoro-benzamide] | 0.3% | 0.2% |
| N#Cc1ncc(N2C(=O)C3(CCC3)N(c3cccc4ccccc34)C2=S)cc1C(F)(F)F [Cpd 34, 5-[8-(1-naphthyl)-5-oxo-7-thioxo-6,8-diazaspiro[3.4]octan-6-yl]-3-(trifluoromethyl)pyridine-2-carbonitrile] | 0.2% | −0.1% |
| N#Cc1ncc(N2C(=O)C3(CCC3)N(c3ccc(C(=O)NCc4ccccc4)c(F)c3)C2=S)cc1C(F)(F)F [Cpd 36, N-benzyl-4-[6-[6-cyano-5-(trifluoromethyl)-3-pyridyl]-5-oxo-7-thioxo-6,8-diazaspiro[3.4]octan-8-yl]-2-fluoro-benzamide] | 0.3% | 0.9% |
| N#Cc1ncc(N2C(=O)C3(CCC3)N(c3ccc(C(=O)NCc4ccccn4)c(F)c3)C2=S)cc1C(F)(F)F [Cpd 44, 4-[6-[6-cyano-5-(trifluoromethyl)-3-pyridyl]-5-oxo-7-thioxo-6,8-diazaspiro[3.4]octan-8-yl]-2-fluoro-N-(2-pyridylmethyl)benzamide] | 0.0% | −0.2% |
| COCCNC(=O)c1ccc(N2C(=S)N(c3cnc(C#N)c(C(F)(F)F)c3)C(=O)C23CCC3)cc1F [Cpd 46, 4-[6-[6-cyano-5-(trifluoromethyl)-3-pyridyl]-5-oxo-7-thioxo-6,8-diazaspiro[3.4]octan-8-yl]-2-fluoro-N-(2-methoxyethyl)benzamide] | 0.2% | −0.1% |
| N#Cc1ncc(N2C(=O)C3(CCC3)N(c3ccc(OC4CCN(CCO)CC4)cc3)C2=S)cc1C(F)(F)F [Cpd 51, 5-[8-[4-[[1-(2-hydroxyethyl)-4-piperidyl]oxy]phenyl]-5-oxo-7-thioxo-6,8-diazaspiro[3.4]octan-6-yl]-3-(trifluoromethyl)pyridine-2-carbonitrile] | 0.2% | 0.8% |
| N#Cc1ncc(N2C(=O)C3(CCC3)N(c3ccc(OCCCN4CCCC4)c(F)c3)C2=S)cc1C(F)(F)F [Cpd 55, 5-[8-[3-fluoro-4-(3-pyrrolidin-1-ylpropoxy)phenyl]-5-oxo-7-thioxo-6,8-diazaspiro[3.4]octan-6-yl]-3-(trifluoromethyl)pyridine-2-carbonitrile] | 0.6% | 0.7% |
